Experimental findings from patent US20030069295A1, “Use of histamine H3 receptor inverse agonists for the control of appetite and treatment of obesity” (Gliatech, Inc., priority 2001, published 2003) are described below.

Read-outs that look alike come from different tables or passages of the source. Marks after values point to notes of the source that are not given here.

One assay concerns the target T1, Histamine H3 receptor (Rattus norvegicus, UniProt Q9QYN8).
T1 construct: The cerebral cortical tissues were harvested and frozen on dry ice; from tissue; host or cells: cerebral cortex membranes of male Sprague-Dawley rats
The experiment in a line: Histamine H3 receptor binding analysis, [3H]-Nα-methylhistamine competition in rat cerebral cortical membranes, with and without GTPγS. The settings on record: for Ki Ratio (−/+): Ki without GTPγS / Ki with GTPγS; for remaining activity at 30 pM: 0.03 nM of compound; for remaining activity at 30 pM / remaining activity at 0.0001 µM / remaining activity at 0.0003 µM / remaining activity at 0.001 µM / remaining activity at 0.003 µM / remaining activity at 0.01 µM / remaining activity at 0.03 µM / remaining activity at 0.1 µM / remaining activity at 0.3 µM / remaining activity at 1 µM: read-out: percent of [3H]-Nα-methylhistamine bound (mean); for remaining activity at 0.0001 µM: 0.1 nM of compound; for remaining activity at 0.0003 µM: 0.3 nM of compound; for remaining activity at 0.001 µM: 1 nM of compound; for remaining activity at 0.003 µM: 3 nM of compound; for remaining activity at 0.01 µM: 10 nM of compound; for remaining activity at 0.03 µM: 30 nM of compound; for remaining activity at 0.1 µM: 100 nM of compound; for remaining activity at 0.3 µM: 300 nM of compound; for remaining activity at 1 µM: 1000 nM of compound.

The test system of another assay is Sprague-Dawley rats. As to the kind of experiment: Food intake study in Sprague-Dawley rats. In kind it is in vivo, rat. The conditions noted are these: for cumulative food intake, mean (g) ± sem: 10 mg/kg i.p., rats; for effect on food consumption by rats: two hours after intraperitoneal administration. On the procedure:
The compounds summarized in Table 3 were examined for their ability to suppress food consumption by adult Sprague-Dawley rats. Male Sprague Dawley rats were purchased from Harlan Laboratories of Indianapolis, Ind. Rats were housed one per cage and maintained on a 12 hour light/dark schedule (lights-out at 12:30 p.m.) with ad libitum access to powdered Teklad Mouse/Rat Diet 7012 (available from Harlan Laboratories of Indianapolis, Ind.) and water. Rats were acclimated to laboratory conditions and food for 1 to 2 weeks prior to initiating food intake studies. On the day of experiments, test compounds were solubilized or suspended in vehicle/carrier and administered to rats (i.p. or p.o.) 30 to 60 minutes prior to the onset of the dark cycle. Food intake was determined at 1, 2, 4, and 24 hours following the onset of the dark cycle. Alternatively, rats were fasted (water provided) for 24 hours prior to evaluating the effects of compounds on food intake. For these studies, compounds or vehicle/carrier were administered and rats were placed in standard small animal metabolism chambers with ad ibitum access to powdered Teklad Mouse/Rat Diet 7012 and water. Food intake was determined at 2 and 4 hours following the onset of feeding.
Data is cumulative food intake in grams, mean±sem. In the table, * indicates a significant decrease in food intake compared to the vehicle-treated rats (t-test, p<0.05).
(§1) The percent reduction in food intake by rats two hours after intraperitoneal administration of each compound is shown in Table 5. […] In Table 5, * indicates a significant decrease in food intake compared to the vehicle-treated rats (t-test, p<0.05). The ex vivo binding values in Table 5 represent the drug dose required to obtain ½-maximal H3 receptor occupancy in the brain following intraperitoneal administration. The dose values shown in Table 5 represent the dosage of drug utilized during the food intake studies. In all cases, the tested dose exceeded the amount needed to obtain ½-maximal H3 receptor occupancy in the brain.

The target of the next assay is T2, H3 receptor (Rattus norvegicus, UniProt Q9QYN8).
T2 construct: ½-maximal H3 receptor occupancy in the brain following intraperitoneal administration; from tissue; host or cells: brain of dosed animals
T2 sequence (Q9QYN8 whole entry): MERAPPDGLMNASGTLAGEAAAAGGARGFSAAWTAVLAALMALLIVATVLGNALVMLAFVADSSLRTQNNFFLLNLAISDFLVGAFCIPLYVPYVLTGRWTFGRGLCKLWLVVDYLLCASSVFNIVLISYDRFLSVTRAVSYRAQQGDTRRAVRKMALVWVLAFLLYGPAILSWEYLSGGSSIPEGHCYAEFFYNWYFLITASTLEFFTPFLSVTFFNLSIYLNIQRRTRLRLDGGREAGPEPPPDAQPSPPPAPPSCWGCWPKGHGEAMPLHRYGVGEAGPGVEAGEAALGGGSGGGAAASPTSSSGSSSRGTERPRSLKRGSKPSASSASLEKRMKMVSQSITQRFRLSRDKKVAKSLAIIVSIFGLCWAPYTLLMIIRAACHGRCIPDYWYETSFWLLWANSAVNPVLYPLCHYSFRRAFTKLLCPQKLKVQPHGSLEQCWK
As to the kind of experiment: Ex vivo binding: H3 receptor occupancy in the brain following intraperitoneal administration.
Source text: as §1

The mark [1] stands for this setting: GTPγS-treated receptor preparation (G-protein uncoupled), read-out: Ki (+) GTPγS.
Where [2] appears, read: untreated receptor preparation (mixture of coupled and uncoupled H3 receptors), read-out: Ki (−) GTPγS.

T1 sequence (Q9QYN8 whole entry): as above
Method for Histamine H3 receptor: A histamine H3 receptor binding analysis to determine the affinity of various imidazole derivatives for G-protein uncoupled receptors was performed as follows. […] Animals were acclimated to laboratory conditions for a minimum of one week prior to tissue harvesting.
Animals were anesthetized by NO2 inhalation and euthanized by rapid decapitation. The cerebral cortical tissues were harvested and frozen on dry ice. Rat corticies were mechanically homogenized using a Tissue Tearer in 25 mM Tris buffer (pH 7.5 at 4° C.) containing: EDTA (10 mM), phenylmethylsulfonyl fluoride (0.1 mM), chymostatin and leupeptin (each 0.2 mg/50 mL). The homogenate was centrifuged in a Sorvall centrifuge at 40,000×g for 30 minutes. The pellet was re-suspended in 25 ml water and lysed on ice for 30 minutes. The homogenate was then re-centrifuged and the membrane lysis was repeated. The membranes were centrifuged and the final membrane pellets were resuspended in 14 volumes of water to yield approximately 200 μg protein/100 μl final concentration. The suspension was stored frozen at −80° C. prior to use. Protein concentrations were determined using the Coomassie Plus Protein Assay (available from Pierce of Rockford, Ill.).
GTPγS causes dissociation of G-protein from receptors. Data are shown as percent of [^3H]-N^α-methylhistamine bound (mean) for each table.

As a reminder, the Ki is the dissociation constant of the complex between target and ligand, obtained from inhibition or displacement. Consider `O=C(N[C@@H]1C[C@H]1c1c[nH]cn1)OCC1CCCCC1` [Compound 3, 4-((1R,2R)-trans-2-(O-(2-cyclohexylmethyl)carboxamido)cyclopropyl)imidazole], for which the Ki on Histamine H3 receptor (Ki (+) GTPγS, GTPγS-treated receptor preparation (G-protein uncoupled)) is 4.2 nM; at Histamine H3 receptor (Ki (−) GTPγS, untreated receptor preparation (mixture of coupled and uncoupled H3 receptors)) it was 10.1 nM. The “Ki Ratio (−/+)” value on Histamine H3 receptor came out at 2.4. Moreover, the “cumulative food intake, mean (g) ± sem” value in the assay with Sprague-Dawley rats (1 hr following onset of dark cycle) is given as 1.8 ± 0.3* g; in the assay with Sprague-Dawley rats (2 hr following onset of dark cycle), 4.4 ± 0.2* g; with Sprague-Dawley rats (4 hr following onset of dark cycle), 7.1 ± 0.5* g; in the assay with Sprague-Dawley rats (24 hr following onset of dark cycle), 17.4 ± 1.2* g. The “effect of a single administration on food consumption” value in the assay on Sprague-Dawley rats (single administration, up to 24 hours, result in words) was “significant reduction of food consumption”. Moreover, the “Ex Vivo Binding (drug dose required to obtain ½-maximal H3 receptor occupancy in the brain)” value (“Ex Vivo Binding” for short) on H3 receptor is given as 2.6 ± 1.3 mg/kg.
As for `CC(C)(C)CCC#C[C@@H]1C[C@H]1c1c[nH]cn1` [Compound 6, (1R,2R)-trans-4-(2-(5,5-dimethylhex-1-ynyl)cyclopropyl) imidazole], the values for the Ki on Histamine H3 receptor (setting [1]) and on Histamine H3 receptor (setting [2]) were 0.24 nM and 0.41 nM, respectively. Besides, at Histamine H3 receptor, the “Ki Ratio (−/+)” value is listed as 1.7. Further, in the assay with Sprague-Dawley rats (result in words), the “effect on food consumption by rats” value is listed as “no measurable effect”. Moreover, the “Ex Vivo Binding” value on H3 receptor amounted to 0.08 ± 0.03 mg/kg.
Take `O=C(N[C@@H]1C[C@H]1c1c[nH]cn1)OCc1c(Cl)cccc1Cl` [Compound 7, 4-((1R,2R)-trans-2-(O-(2,6-dichlorophenylmethyl)carboxamido)cyclopropyl)imidazole]: the inhibition constant (Ki) on Histamine H3 receptor (setting [1]) amounted to 2.3 nM; at Histamine H3 receptor (setting [2]), 3.4 nM. Also, the “Ki Ratio (−/+)” value at Histamine H3 receptor worked out at 1.5. Further, the “effect on food consumption by rats” value in the assay with Sprague-Dawley rats (result in words) is on record as “no measurable effect”. The “Ex Vivo Binding” value at H3 receptor turned out to be 2.9 ± 1.3 mg/kg.
The like results for `CC(C)(C)CCOC(=O)N[C@@H]1C[C@H]1c1c[nH]cn1` [Compound 9, 4-((1R,2R)-trans-2-(O-(3,3-dimethyl-but-1-yl)carboxamido)cyclopropyl)imidazole] were, in that order, 4.5 nM, 7.3 nM, 1.6, “no measurable effect” and 3.7 ± 0.4 mg/kg.
As to `C(=C/CCC1CCCCC1)/CCc1c[nH]cn1` [Compound 2, (3Z)-4-(6-cyclohexylhex-3-en-1-yl)imidazole], at Histamine H3 receptor (Tris-GTPγS), the remaining activity at 30 pM amounted to 98.3%, the remaining activity at 0.0001 µM turned out to be 107%, the remaining activity at 0.0003 µM was determined as 103% and the remaining activity at 0.001 µM came out at 91.1%. Further, at Histamine H3 receptor (Tris-GTPγS), the remaining activity at 0.003 µM came to 77.4%, the remaining activity at 0.01 µM worked out at 54.8%, the remaining activity at 0.03 µM came out at 26.2% and the remaining activity at 0.1 µM was determined as 10.7%. Also, at Histamine H3 receptor (Tris-GTPγS), the remaining activity at 0.3 µM came to 4.4% and the remaining activity at 1 µM is 3.4%. On Histamine H3 receptor (Tris), the remaining activity at 30 pM was 98.5%, the remaining activity at 0.0001 µM stood at 96.7%, the remaining activity at 0.0003 µM was found to be 96.7% and the remaining activity at 0.001 µM is 99.2%. In addition, on Histamine H3 receptor (Tris), the remaining activity at 0.003 µM is 88.7%, the remaining activity at 0.01 µM came out at 60.1%, the remaining activity at 0.03 µM was determined as 32.6% and the remaining activity at 0.1 µM is 13.5%. Moreover, on Histamine H3 receptor (Tris), the remaining activity at 0.3 µM came out at 4.5% and the remaining activity at 1 µM was 0.4%. On Histamine H3 receptor (setting [1]), the inhibition constant (Ki) is 3.6 nM. For the same molecule, the “Ki Ratio (−/+)” value on Histamine H3 receptor is 1.3. The “binding to GTPγS-treated cortical membrane preparation compared with non-treated preparation” value on Histamine H3 receptor (result in words) is reported as “relatively little difference in binding”. The Ki at Histamine H3 receptor (setting [2]) is 4.6 nM. The “effect on food consumption by rats” value in the assay on Sprague-Dawley rats (result in words) was “no measurable effect”. The “Ex Vivo Binding” value at H3 receptor is 0.92 ± 0.01 mg/kg.
